The values below come from patent publication US20120135013A1, “CD45 and Methods and Compounds Related Thereto” (priority 2007, published 2012).

Data set [1] concerns the target T1, Cdc25B (Homo sapiens, UniProt P30305).
T1 sequence (P30305 1-580): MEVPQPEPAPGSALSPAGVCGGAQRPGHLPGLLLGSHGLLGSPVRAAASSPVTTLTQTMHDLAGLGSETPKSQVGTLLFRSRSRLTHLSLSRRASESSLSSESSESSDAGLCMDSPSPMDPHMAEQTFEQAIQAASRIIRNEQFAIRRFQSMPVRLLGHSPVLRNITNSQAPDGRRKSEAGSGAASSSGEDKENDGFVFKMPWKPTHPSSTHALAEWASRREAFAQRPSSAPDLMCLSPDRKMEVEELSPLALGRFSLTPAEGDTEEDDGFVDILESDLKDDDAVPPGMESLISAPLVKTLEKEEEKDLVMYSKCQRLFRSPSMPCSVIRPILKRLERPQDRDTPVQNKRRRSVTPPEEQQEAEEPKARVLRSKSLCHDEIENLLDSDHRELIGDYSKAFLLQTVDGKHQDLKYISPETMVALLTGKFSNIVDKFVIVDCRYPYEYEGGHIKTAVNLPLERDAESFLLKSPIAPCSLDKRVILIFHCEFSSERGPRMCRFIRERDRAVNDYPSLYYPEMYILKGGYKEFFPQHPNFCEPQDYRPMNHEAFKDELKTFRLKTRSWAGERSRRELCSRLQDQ
The following applies: Lazo et al. (2002); cited from earlier work.

A further data set addresses LF (Bacillus anthracis, UniProt P15917). Type of data set: biochemical.
In data set [2] the target is T2, CD45 (Homo sapiens, UniProt P08575).
T2 construct: purchased Upstate (Lake Placid, N.Y.)
T2 sequence (P08575 26-1306): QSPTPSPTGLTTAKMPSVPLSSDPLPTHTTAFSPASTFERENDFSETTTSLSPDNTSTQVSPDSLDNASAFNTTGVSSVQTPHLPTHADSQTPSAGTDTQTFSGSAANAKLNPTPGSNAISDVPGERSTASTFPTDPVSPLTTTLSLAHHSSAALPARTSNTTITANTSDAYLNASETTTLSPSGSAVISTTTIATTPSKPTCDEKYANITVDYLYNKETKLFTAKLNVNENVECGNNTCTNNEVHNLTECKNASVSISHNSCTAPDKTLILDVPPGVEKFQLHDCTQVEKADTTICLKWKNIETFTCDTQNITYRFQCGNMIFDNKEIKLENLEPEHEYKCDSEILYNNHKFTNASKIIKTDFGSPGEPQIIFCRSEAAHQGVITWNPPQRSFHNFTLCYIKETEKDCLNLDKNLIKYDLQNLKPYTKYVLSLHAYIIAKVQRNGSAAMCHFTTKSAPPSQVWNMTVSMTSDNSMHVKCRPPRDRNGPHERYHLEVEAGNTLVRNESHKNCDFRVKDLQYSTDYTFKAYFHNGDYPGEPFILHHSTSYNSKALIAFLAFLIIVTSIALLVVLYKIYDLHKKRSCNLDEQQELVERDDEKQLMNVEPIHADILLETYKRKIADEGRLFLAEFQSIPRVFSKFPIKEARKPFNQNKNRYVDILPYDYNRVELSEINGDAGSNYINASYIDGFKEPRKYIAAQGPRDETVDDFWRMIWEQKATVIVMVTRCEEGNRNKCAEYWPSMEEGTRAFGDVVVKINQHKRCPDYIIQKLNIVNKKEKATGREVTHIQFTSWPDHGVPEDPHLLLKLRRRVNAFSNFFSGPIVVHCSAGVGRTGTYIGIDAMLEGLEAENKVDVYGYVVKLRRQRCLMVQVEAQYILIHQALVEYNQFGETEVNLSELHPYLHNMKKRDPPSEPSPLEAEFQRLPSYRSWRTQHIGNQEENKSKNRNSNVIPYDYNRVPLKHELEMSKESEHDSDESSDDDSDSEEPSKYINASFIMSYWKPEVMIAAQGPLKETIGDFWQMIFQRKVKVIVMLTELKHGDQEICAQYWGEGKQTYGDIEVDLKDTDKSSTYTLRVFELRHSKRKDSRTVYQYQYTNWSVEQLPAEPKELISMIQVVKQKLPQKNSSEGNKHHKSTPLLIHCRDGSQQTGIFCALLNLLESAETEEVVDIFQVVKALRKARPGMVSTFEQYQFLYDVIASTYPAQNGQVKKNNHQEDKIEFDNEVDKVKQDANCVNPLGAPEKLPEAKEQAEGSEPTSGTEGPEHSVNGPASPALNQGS
As to the kind of experiment: biochemical. The following applies: read-out: inhibition of the phosphatase activity of CD45.

The target in data set [3] is T1, Cdc25B. As to the kind of experiment: biochemical. The following applies: read-out: % Inhibition (cdc25B).
The subject of data set [4] is Sterne B. anthracis spores. It counts as cell-based. The following applies: 10 μM.
The subject of a further data set is proteasome. It counts as biochemical, mouse.
For data set [5], the system named is CD45. As to the kind of experiment: CD45 phosphatase activity after immunoprecipitation from cell lysates. It counts as cell-based, mouse. The following applies: 8 μM, 72 hours.
The subject of another data set is MEK. It counts as cell-based, mouse.
For the next data set, the system named is Ames B. anthracis spores. To be noted: in vivo.
For data set [6], the system named is CD45. As to the kind of experiment: immunoblot of CD45 protein levels. Type of data set: cell-based, mouse. The following applies: 72 hours, vs untreated or scrambled PMO.

By inhibition is commonly meant the drop in the measured response relative to a control, in per cent.

Chain of LF (P15917 34-809 limits assumed): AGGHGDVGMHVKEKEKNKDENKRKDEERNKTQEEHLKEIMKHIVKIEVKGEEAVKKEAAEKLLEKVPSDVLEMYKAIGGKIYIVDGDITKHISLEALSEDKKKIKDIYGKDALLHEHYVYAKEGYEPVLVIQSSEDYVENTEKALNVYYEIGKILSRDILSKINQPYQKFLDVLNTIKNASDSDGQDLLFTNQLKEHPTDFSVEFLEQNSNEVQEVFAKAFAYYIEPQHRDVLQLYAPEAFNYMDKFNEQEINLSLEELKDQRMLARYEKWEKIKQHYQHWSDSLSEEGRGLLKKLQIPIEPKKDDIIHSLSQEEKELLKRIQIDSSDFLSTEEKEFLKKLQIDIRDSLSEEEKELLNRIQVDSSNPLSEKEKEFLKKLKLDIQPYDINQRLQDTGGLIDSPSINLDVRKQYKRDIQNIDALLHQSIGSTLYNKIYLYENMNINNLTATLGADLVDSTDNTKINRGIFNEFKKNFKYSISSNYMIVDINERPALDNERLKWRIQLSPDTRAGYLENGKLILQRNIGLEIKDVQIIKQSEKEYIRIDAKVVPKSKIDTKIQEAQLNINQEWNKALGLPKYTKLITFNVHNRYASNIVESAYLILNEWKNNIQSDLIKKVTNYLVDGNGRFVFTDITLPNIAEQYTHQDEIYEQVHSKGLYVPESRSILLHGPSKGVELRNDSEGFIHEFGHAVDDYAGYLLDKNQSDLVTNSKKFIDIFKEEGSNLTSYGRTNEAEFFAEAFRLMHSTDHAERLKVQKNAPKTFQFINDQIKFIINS

Consider `O=C1C(SCCO)=C(SCCO)C(=O)c2ccccc21` [NSC 95397], for which the “inhibition of Cdc25, previously reported” value at Cdc25B [1] is recorded as “previously reported to inhibit Cdc25”. The “inhibition of LF enzymatic activity (cleavage of peptide substrate)” value (from here on “inhibition of LF enzymatic activity”) against LF is “None of the compounds were observed to inhibit”. The inhibition at 10 µM on CD45 [2] is approximately 94%; at Cdc25B [3], 83%. Besides, the “anti-microbial activity (growth of the bacteria)” value in data set [4] is “do not inhibit the growth of the bacteria”. Also, the “inhibition of proteasome activity” value with proteasome is “neither NSC 95397 nor NSC 270012 inhibited proteasome activity”.

For `Cc1ccc2c(c1C)-c1c(ccc(C)c1C)C(=O)C2=O` [NSC 135880], the “inhibition of Cdc25, previously reported” value on Cdc25B [1] was “previously reported to inhibit Cdc25”. Moreover, the “inhibition of LF enzymatic activity” value at LF is “None of the compounds were observed to inhibit”. For the same compound, the inhibition at 10 µM on Cdc25B [3] came out at 99%.

As for `O=C1C=C(SCCO)C(=O)c2ccccc21` [NSC 148596], the “inhibition of LF enzymatic activity” value on LF was “None of the compounds were observed to inhibit”. Further, at Cdc25B [3], the inhibition at 10 µM came out at 67%.

With `NC(=O)CCSC1=CC(=O)c2ccccc2C1=O` [NSC 270011], the “inhibition of LF enzymatic activity” value at LF is “None of the compounds were observed to inhibit”. Besides, on Cdc25B [3], the inhibition at 10 µM was 25%.

For `NC(=O)CCCSC1=CC(=O)c2ccccc2C1=O` [NSC 270012], on LF, the “inhibition of LF enzymatic activity” value was “None of the compounds were observed to inhibit”. Moreover, the inhibition at 10 µM on Cdc25B [3] worked out at 72%. For the same compound, the “anti-microbial activity (growth of the bacteria)” value in data set [4] is “do not inhibit the growth of the bacteria”. Further, the “inhibition of proteasome activity” value in the data set with proteasome is “neither NSC 95397 nor NSC 270012 inhibited proteasome activity”.

In the case of “CD45 PMO (CCACAAACCCATGGTCATATC; all phosphorodiamidate morpholino (PMO))”, the “CD45 phosphatase activity following immunoprecipitation” value with CD45 [5] is “concomitant reduction in CD45 phosphatase activity”. Besides, the MEK cleavage result in the data set on MEK is recorded as “MEK cleavage was not prevented”. Moreover, in the data set on Ames B. anthracis spores, the “antibody titers in surviving mice” value was “developed protective antigen specific and lethal toxin neutralizing antibody titers”; the “protection on re-challenge with Ames B. anthracis spores” value was “completely protected”. The survival entry in the data set with Ames B. anthracis spores (100 mg/kg/day) is “greatly increased”. Moreover, the “CD45 protein levels by immunoblot” value with CD45 [6] is on record as “dose dependent reduction”.
